Experimental data from PMC6389703, “Identification of Biologically Active Ganoderma lucidum Compounds and Synthesis of Improved Derivatives That Confer Anti-cancer Activities in vitro” (Frontiers in Pharmacology, 2019).

Experiments:
[1] = system: SUM-149 cells; assay: ApoTox-Glo Triplex assay, SUM-149; type: cell-based, human; conditions: SUM-149, 24 h
Protocol: Cells (9.5 × 10^4/well in 75 μL of fresh medium) were dispensed in 96-well black flat bottom (8807BC, Corning) plates. The cells were incubated for 12 h at 37°C and then treated with compounds (25 μL) for 24 h. DMSO was used as a negative control, and staurosporine was used as the positive control. […] Then, the Caspase-Glo® 3/7 Reagent was added; plates were mixed briefly by orbital shaking (300-500 rpm for ∼30 s), followed by an additional 30 min incubation at RT. Then luminescence, which correlates with caspase 3/7 activation, was recorded with a plate reader to […] apoptosis induction.

[2] = system: SUM-149 cells; assay: Matrigel invasion assay (Transwell); type: cell-based, human; conditions: 72 h
Protocol: Cell migration and invasion were measured by using Corning® FluoroBlok^TM Cell Culture Inserts and performing BD BioCoat Matrigel invasion assays (BD Biosciences, San José, CA, United States) as described in [Martinez-Montemayor et al. (2011)] and [Suarez-Arroyo et al. (2016)].

[3] = system: Sup-B15 cells; assay: Cell Titer Glo viability assay, Sup-B15; type: cell-based; conditions: Homo sapiens, 72-h treatment
Protocol: (§1) Either 1 × 10^3–4.8 × 10^3 or 4 × 10^2–1.2 × 10^3 cells were seeded to each well of 96- or 384-well white polystyrene flat-bottomed plates (3610 or 8804BC, Corning) in 100 μL or 30 μL media per well, respectively. The concentrations used were experimentally determined to ensure logarithmic growth during the duration of the experiment and prevent adverse effects on cell growth by DMSO exposure. The plates were incubated at 37°C in 5% CO2 for 24 h before treatment. Stock solutions of test compounds (10 mM in DMSO) in nine 3-fold serial dilutions were dispensed via pintool (Biomek). The final concentration of DMSO was 0.3% (v/v) in each well. […] Luminescence was recorded in an Envision plate reader (PerkinElmer).
(§2) For the CTG assay, 3 or 4 replicate assays were conducted for each experimental condition, and a minimum of 3 independent experiments were conducted for cellular assays. The mean luminescence of each experimental treatment group was normalized as a percentage of the mean intensity of untreated controls. EC50 values (μM) were calculated by Pipeline Pilot Software (Accelrys, Enterprise Platform, San Diego, CA, United States). EC50 values (μM) from the viability assay were calculated from dose response curve-fitting via non-linear regression by using GraphPad Prism (Version 7.0, San Diego, CA, United States). […]

[4] = system: MDA-MB-231 cells; assay: Cell viability assay, MDA-MB-231; type: cell-based; conditions: Homo sapiens, Figure 4E
Protocol: as §1, with “(PerkinElmer). […]” for “(PerkinElmer).”
as §2

[5] = system: MCF-7 cells; assay: ROS measurement (CellROX green), MCF-7; type: cell-based, human
Protocol: (§3) SUM-149 or MDA-MB-231 were plated in 96-well plates at a density of 2 × 10^4 and 1 × 10^4 cells/well, respectively, in black 96-well clear bottom tissue culture plates and incubated for 24 h at 37°C. The mRuby-Mito-7 plasmid was obtained from Addgene (#55874 from Michael Davidson). A stable clone of MCF-7 was generated by using Fugene 6 (Roche) to transfect cells (2 × 10^5) with plasmid (2.0 μg) under neomycin selection. A stable cell line was selected by using G418 (300 μg/mL) for 2 weeks, sorted by flow cytometry, and maintained under G418 thereafter. Transfected MCF-7 cells were plated at a density of 2 × 10^4 cells/well in black 96-well clear bottom tissue culture plates and incubated overnight at 37°C. To test for ROS formation and remove background, cells were replenished with fresh PBS with 2% FBS and treated with the desired compounds for 1 h at 37°C. DMSO (0.5%) was used as a negative control, while Menadione (Mena, at 10 μM) or t-Butyl hydroperoxide (TBHP) at 100 μM final concentration were used as a positive control. To evaluate the compounds’ effects on ROS formation inhibition, the free radical scavenger N-acetyl cysteine (NAC) was used. Cells were treated with or without NAC (500 μM or 100 μM) for 1 h, then CellROX® green reagent (Molecular Probes #C10444) was added to a final concentration of 5 μM, and cells were incubated for an additional 30 min at 37°C. Cells were then washed 2× with PBS, followed by fixation with 4% paraformaldehyde (v/v) for 15 min, and 2 more washes with PBS. Fluorescence intensity was measured in a Clariostar® plate reader (BMG LABTECH, Cary, NC, United States) at 535 nm.

[6] = system: KOPN-8 cells; assay: Cell Titer Glo viability assay, KOPN-8; type: cell-based; conditions: Homo sapiens, 72-h treatment
Protocol: as §1, §2

[7] = system: BCR-ABL cells; assay: Cell Titer Glo viability assay, BCR-ABL; type: cell-based, murine; conditions: Mus musculus, 72-h treatment
Protocol: as §1, §2

[8] = system: MDA-MB-231 cells; assay: ROS measurement (CellROX green), MDA-MB-231; type: cell-based, human; conditions: EP 20 μM, 1 h
Protocol: as §3, with “Cells were treated with or without NAC (500 μM or 100 μM) for 1 h, then CellROX® green reagent (Molecular Probes #C10444) was added to a final concentration of 5 μM, and cells were incubated for an additional 30 min at 37°C. Cells were then washed 2× with PBS, followed by fixation with 4% paraformaldehyde (v/v) for 15 min, and 2 more washes with PBS.” left out

[9] = system: SUM-149 cells; assay: Annexin V/7-AAD apoptosis detection; type: cell-based, human; conditions: 48 h
Protocol: SUM-149 cells (5 × 10^5) were seeded and treated either with vehicle (0.1% DMSO) or with 20 μM of EP or with puromycin (200 ng/mL) as positive control for 48 h. After treatment floating cells were collected, and all cells were harvested and counted. Treated cells were analyzed for cell death by using the FITC Annexin-V/7AAD Apoptosis detection kit (product #640922, Biolegend, San Diego, CA, United States) according to the manufacturer’s instructions. Briefly, cells were resuspended in Annexin Binding Buffer, stained with Annexin V-FITC and/or 7-AAD, and incubated for 30 min at 4°C. Data were acquired on a BD FACS Canto II cytometer (BD Biosciences, San José, CA, United States) and analyzed by using FlowJo software (V10, FlowJo, LLC, Ashland, OR, United States).

CC(C)[C@@H](C)/C=C/[C@@H](C)[C@H]1CC[C@@H]2[C@]1(C)CC[C@H]1[C@]23C=C[C@]2(C[C@@H](O)CC[C@]12C)OO3 [EP, ergosterol peroxide]
caspase 3/7 activity [1]: increase caspase 3/7 activity
viability (GF-AFC) [1]: decrease viability
invading cells ([2]; 10 μM): significant reduction
decrease in invasion ([2]; 15 μM): 43%
EC50 [3]: 9.86 µM
EC50 [4]: 19 µM
ROS increase (fold) ([5]; GA-01, ergosterol, 5,6-dehydroergosterol 50 µM, EP 20 µM): at least a twofold
ROS formation reduction when co-treated with NAC ([5]; NAC 100 µM, TBHP 100 µM): 9–25%
EC50 [6]: 22.4 µM
EC50 [7]: 6.9 µM
ROS formation (fold) [8]: twofold
Early apoptotic cells ([9]; 20μM): 50.1%
Late apoptotic cells ([9]; 20μM): 3.2%
Live cells ([9]; 20μM): 45.9%
decrease of live cells (Annexin-, 7AAD-) ([9]; vs vehicle): ~15%
